Data: ChEMBL document CHEMBL1806441, “Discovery and synthesis of a new class of opioid ligand having a 3-azabicyclo[3.1.0]hexane core. An example of a 'magic methyl' giving a 35-fold improvement in binding” (Bioorg Med Chem Lett, 2011)
pKi: −log10 of the molar value. Activity calls are given as the source filed them. The calls are words filed in the database; no cut-off is given here.

Legend:
[1] = Binding affinity to dog delta opioid receptor; design: species or system Canis lupus familiaris
[2] = Binding affinity to dog mu opioid receptor; design: species or system Canis lupus familiaris
[3] = system: Canis familiaris; assay: Antipruritic activity in dog with flea allergy dermatitis at 2 mg/kg, po upto 12 hrs; type: functional, organism-based; design: dose 2 mg/kg; conditions: Canis lupus familiaris
[4] = Binding affinity to dog kappa opioid receptor; design: species or system Canis lupus familiaris
[5] = molecular target: Mu-type opioid receptor (Homo sapiens, UniProt P35372); assay: Displacement of [3H]DAMGO from human mu opioid receptor
[6] = molecular target: Mu-type opioid receptor (Cavia porcellus, UniProt P97266); assay: Antagonist activity at mu opioid receptor in guinea pig longitudinal muscle myenteric plexus assessed as inhibition of DAMGO-induced contraction after 10 mins; type: functional; conditions: read-out: pA2 (converted)
[7] = system: Mus musculus; assay: Inhibition of morphine-induced antinociception in ICR mouse assessed as antagonism of morphine response to heat-induced tail flick at 10 mg/kg, sc preincubated for 15 mins before the addition of morphine assessed after 30 mins; type: functional; conditions: route subcutaneous
[8] = molecular target: T1, Cytochrome P450 2D15 (Canis lupus familiaris, UniProt Q29473); assay: Inhibition of dog CYP2D15; type: ADME
T1 sequence (Q29473 whole entry): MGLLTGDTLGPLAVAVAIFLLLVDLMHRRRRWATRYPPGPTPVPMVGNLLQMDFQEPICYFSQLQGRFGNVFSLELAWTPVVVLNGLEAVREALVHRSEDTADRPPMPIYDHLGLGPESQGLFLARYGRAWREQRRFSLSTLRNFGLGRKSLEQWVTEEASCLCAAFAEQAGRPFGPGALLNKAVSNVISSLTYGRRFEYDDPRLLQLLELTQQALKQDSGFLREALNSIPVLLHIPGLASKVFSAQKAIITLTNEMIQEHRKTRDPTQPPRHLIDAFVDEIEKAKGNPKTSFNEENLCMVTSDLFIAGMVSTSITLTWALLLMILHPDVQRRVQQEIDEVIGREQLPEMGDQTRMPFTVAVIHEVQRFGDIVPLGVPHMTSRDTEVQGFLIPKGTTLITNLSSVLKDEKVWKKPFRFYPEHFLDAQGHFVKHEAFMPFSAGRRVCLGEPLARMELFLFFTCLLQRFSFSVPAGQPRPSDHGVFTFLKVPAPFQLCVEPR

[9] = system: CHO; assay: Genotoxicity in CHO cells by micronucleus assay; type: toxicity, cell-based, Cricetulus griseus; conditions: chinese hamster

Sequence of Mu-type opioid receptor (Homo sapiens, UniProt P35372) (P35372 whole entry): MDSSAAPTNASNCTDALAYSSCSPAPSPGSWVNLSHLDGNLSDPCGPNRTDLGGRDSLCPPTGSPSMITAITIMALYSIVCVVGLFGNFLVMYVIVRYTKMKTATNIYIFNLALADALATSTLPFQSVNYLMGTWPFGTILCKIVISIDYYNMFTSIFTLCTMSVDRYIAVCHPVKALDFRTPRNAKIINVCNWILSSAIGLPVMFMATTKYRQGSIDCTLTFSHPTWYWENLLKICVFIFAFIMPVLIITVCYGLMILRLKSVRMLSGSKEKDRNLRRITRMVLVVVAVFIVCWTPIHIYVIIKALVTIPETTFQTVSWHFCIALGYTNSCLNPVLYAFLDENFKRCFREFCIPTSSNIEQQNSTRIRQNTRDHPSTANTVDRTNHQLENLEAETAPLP
Sequence of Mu-type opioid receptor (Cavia porcellus, UniProt P97266) (P97266 whole entry): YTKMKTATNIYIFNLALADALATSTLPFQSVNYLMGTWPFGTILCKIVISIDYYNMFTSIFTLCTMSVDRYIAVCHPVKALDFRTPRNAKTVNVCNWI

| Structure (SMILES) | pKi [1] | pKi [2] | Activity [3] | pKi [4] | pKi [5] | Kb [6] | inhibition in vivo at 10 mg/kg [7] | inhibition (INH) [8] | Activity [9] |
| --- | --- | --- | --- | --- | --- | --- | --- | --- | --- |
| C[C@]1(c2cccc(NS(C)(=O)=O)c2)[C@@H]2CN(CCCc3ccccc3)C[C@@H]21 | 6.74 | 8.39 | Active | 7.03 | 8.32 | 10.7 nM | 89% | Active | Non-toxic |
| CS(=O)(=O)Nc1cccc([C@H]2[C@@H]3CN(CCCc4ccccc4)C[C@@H]32)c1 | < 5.00 | 6.42 |  | 5.80 | 6.77 |  |  |  |  |
